In patent publication US10328062B2, “Biomarkers and use of MET inhibitor for treatment of cancer” (AMGEN, INC., priority 2014, dated 2019):

Columns and labels:
SNU-620 cells = experiment: Immunoblot analysis of apoptotic markers; assay type: cell-based, Human; settings: 30 nM, 24 hours
Method: (§1) Cells were seeded in 10 cm dishes at varying densities and allowed to adhere by incubating at 37° C. and 5% CO2 overnight. […] Cells were harvested in 250 μL lysis buffer containing protease and phosphatase inhibitors. For suspension cell lines, cells were pelleted prior to lysis buffer addition. Protein concentrations for individual lysates were measured using a BCA protein assay. 25 μg of protein lysate per sample was resolved on Life Technologies (Carlsbad, Calif.) NuPAGE Bis-Tris gels per manufacturer's. Samples were transferred to nitrocellulose membranes for Western blot analysis. Membranes were blocked in 5% milk prepared in TBST for 1 hour at room temperature. Total and phospho-specific antibodies for specified endpoints were used at 1:1000 dilutions in 5% milk/TBST (total) or 5% BSA/TBST (phospho). Membranes were incubated in the presence of appropriate primary antibody overnight at 4° C. Secondary anti-species-IgG HRP conjugated antibodies were diluted 1:5000 in 5% milk/TBST and incubated in the presence of membranes for 1 hour at room temperature. Membranes were exposed to Thermo Scientific (Waltham, Mass.) Super Signal PICO West ECL detection reagent per manufacturer's recommended protocol and exposed to film to document signal.
(§2) Antibodies detecting total and phospho-MET (Y1234/1235), phospho-Gab1 (Y627), total and phospho-AKT (S473), total and phospho-ERK (T202/Y204), cleaved caspase-3, and cleaved PARP were purchased from Cell Signaling Technologies (Beverly, Mass.). The total β-actin antibody was purchased from Thermo Scientific (Waltham, Mass.). Both secondary anti-rabbit and anti-mouse IgG-HRP conjugated antibodies were purchased from Thermo Scientific (Waltham, Mass.).
(§3) Flow cytometry cell cycle analysis of MET amplified gastric cancer cell line MKN-45 is represented in FIG. 6. […] BrdU labeling was performed during the final 2 hours of compound treatment. […] Cells were then analyzed by flow cytometry to document effects on the cell cycle. […] Subsequent lysates were analyzed by SDS-PAGE and immunoblot using antibodies detecting cleaved PARP, cleaved caspase-3 and β-actin.

MKN-45 cells = experiment: Immunoblot analysis of apoptotic markers; assay type: cell-based, Human; settings: 30 nM, 24 hours
Method: as §1, §2, §3

SNU-5 cells = experiment: Immunoblot analysis of apoptotic markers; assay type: cell-based, Human; settings: 30 nM, 24 hours
Method: as §1, §2, §3

MKN-45 [1] = experiment: 72 hour cancer cell line viability assay (CellTiter-Glo); assay type: cell-based; settings: Homo sapiens
Method: (§4) Human cancer cell lines were purchased from ATCC, JCRB, Sigma Aldrich or DSMZ. All cell lines were propagated in growth media per the suppliers' recommendation and maintained in 5% CO2 and 37° C.
(§5) Cancer cell line viability assays were carried out using the CellTiter-Glo Luminescent Cell Viability Assay from Promega (Madison, Wis.). Optimal cell seeding densities were determined using time lapse imaging to maximize signal window and ensure cells were not contact growth inhibited at the 72 hour time point. Cells were seeded in 96 well plates in complete growth media and allowed to adhere to the bottom of the plate by incubation at 37° C. and 5% CO2 overnight. […] Plates were incubated at 37° C. and 5% CO2 for 72 hours. Treated plates were then allowed to equilibrate to room temperature along with, CellTiter-Glo substrate and buffer solution prior to use in the viability assay. CellTiter-Glo substrate vials were reconstituted in 10 mL of buffer solution and added to assay plates in 100 μL/well volumes. Plates were shaken for 2 minutes at 700 rotations per minute with an orbit diameter of 3 mm followed by room temperature incubation for 10 minutes. Plates were then read using an Envision plate reader on luminescent setting.
(§6) To calculate growth inhibition effects (0-200% scale), time zero vehicle treated wells (V0), were read at the time of compound addition for each cell line.
(§7) Threshold for high vs low MET copy number was set at aCGH log 2 ratio of 2.5. Focal nature of MET copy number increase was defined qualitatively using tiled aCGH results for chromosome 7.
(§8) Percent growth inhibition is reported on a 0-200% scale where 0% is equivalent to no effect (time 72 hour control), 100% is equivalent to stasis (time 0 hour control) and 200% is equivalent to complete cell death.

NCI-H1993 = experiment: as above; assay type: cell-based; settings: Homo sapiens
Method: as §4, §5, §6, §7, §8

MKN-45 [2] = experiment: Flow cytometry cell cycle analysis; assay type: cell-based, Human; settings: dose titration, 24 hours
Method: (§9) Bromodeoxyuridine (BrdU) labeling reagent was added to cells for the final two hours of compound treatment. Cells were then washed with PBS and treated with trypsin to release from the bottom of the plate. Cells were washed and fixed in 90% methanol at −20° C. overnight. Cells were then washed and treated with 2N HCl and 0.5% triton X-100 to denature the DNA, followed by a wash and staining with anti-BrdU Alexa-647 and anti-Cleaved-Caspase-3 FITC antibodies. Finally cells were subjected to RNase treatment and propidium iodide staining. Cells were then analyzed on an LSRII flow cytometer.
(§10) The anti-BrdU Alexa-647 antibody was purchased from Invitrogen (Carlsbad, Calif.). The anti-cleaved-caspase-3 FITC antibody was purchased from BD Pharmingen (San Jose, Calif.).
(§11) Flow cytometry cell cycle analysis of MET amplified gastric cancer cell line MKN-45 is represented in FIG. 6. […] BrdU labeling was performed during the final 2 hours of compound treatment. Cells were then harvested, fixed, permeabilized and stained with BrdU and caspase-3 antibodies, followed by treatment with RNase and propidium iodide. Cells were then analyzed by flow cytometry to document effects on the cell cycle. […] Flow cytometry cell cycle analysis of MET amplified gastric cancer cell line SNU620 are represented in FIG. 6B. SNU 620 cells were treated as described above. […] Subsequent lysates were analyzed by SDS-PAGE and immunoblot using antibodies detecting cleaved PARP, cleaved caspase-3 and β-actin.

SNU620 = experiment: Flow cytometry cell cycle analysis; assay type: cell-based, Human; settings: SNU 620; dose titration, 24 hours
Method: as §9, §10, §11

COCCOc1cnc2ccn([C@H](C)c3nnc4c(F)cc(-c5cnn(C)c5)cn34)c(=O)c2c1 [Compound M, 6-{(1R)-1-[8-fluoro-6-(1-methyl-1H-pyrazol-4-yl)[1,2,4]triazolo[4,3-a]pyridin-3-yl]ethyl}-3-(2-methoxyethoxy)-1,6-naphthyridin-5(6H)-one]
cleaved PARP and cleaved caspase-3 levels (SNU-620 cells): elevated cleaved PARP and cleaved caspase-3 levels | cleaved PARP and cleaved caspase-3 levels (MKN-45 cells): No induction of cleaved PARP or cleaved caspase-3 | cleaved PARP and cleaved caspase-3 levels (SNU-5 cells): clear induction of both cleaved PARP and cleaved caspase-3 | IC50 (MKN-45 [1]; MKN-45, Gastric, MET copy number High, focal Yes, 72 hour viability): 9 nM | Emax (MKN-45 [1]; MKN-45, 72 hour, 0-200% scale, 100% = stasis, read-out: maximum effect, growth inhibition): 100% | IC50 (NCI-H1993; NCI-H1993, NSCLC, MET copy number High, focal Yes, 72 hour viability): 17 nM | Emax (NCI-H1993; NCI-H1993, 72 hour, 0-200% scale, 100% = stasis, read-out: maximum effect, growth inhibition): 100% | S-phase positive cells (BrdU+) (MKN-45 [2]): corresponding reduction | percentage of cells in the G1 phase of the cell cycle (MKN-45 [2]): dose dependent increase | subG1/Caspase-3+ cells (cell killing) (SNU620): robust induction
